Assays:
[1] = tested on: LNCaP tumor transplanted mice; experiment: In vivo radioactivity distribution using LNCaP tumor transplanted mice
Protocol: Animal experiments were performed in accordance with the guidelines of Kyoto University Animal Experiment Committee. Male CB17/IcrJcl-Prkdc^scid mice were purchased from CLEA Japan, Inc. The animals were raised under 12 h/12 h day/night cycle conditions and freely fed with food and water. LNCaP cells (1.0×10^7 cells/mouse) or PC-3 cells (1.0×10^7 cells/mouse) were suspended in a mixed liquid (1:1,150 μL) of PBS and Matrigel manufactured by Corning Life Sciences Inc., and the suspension was subcutaneously transplanted to the right shoulder of each of the mice under isoflurane anesthesia. Thereafter, the mice were raised for 40 to 60 days.
A saline solution (185 kBq, 100 μL) of [^111In]In-PSMA-DA1 or [^111In]In-PSMA-DB was injected into each of LNCaP or PC-3 tumor transplanted mice via the tail vein thereof (n=3 in each group). The mice were euthanized 1, 4, 24, 48, 96, and 192 hours after the injection. Thereafter, blood and organs were collected, and the mass and radioactivity of each of the organs were measured.
A result thereof is indicated as a value (% ID/g) obtained by dividing the percentage (% ID) of the amount of radioactivity with respect to the amount of injected radioactivity (injected dose) by the mass of blood or the mass of an organ (g). […]

[2] = tested on: LNCaP tumor transplanted mice; experiment: SPECT/CT using LNCaP tumor transplanted mice; type: in vivo; settings: FIG. 7
Protocol: A saline solution (1.9 to 3.0 MBq, 150 μL) of [^111In]In-PSMA-DA1 or [^111In]In-PSMA-DB was injected into each of the LNCaP tumor transplanted mice generated by the above-described method via the tail vein thereof. SPECT/CT was performed with an FX3300 pre-clinical imaging system manufactured by Gamma Medica-Ideas 24 and 48 hours after the injection. Imaging was performed under isoflurane anesthesia using a pinhole collimator with a diameter of 1.0 mm at a rotation radius of 35 mm, a scan time of 70 seconds, and the number of times of imaging of 32. After SPECT, CT (tube voltage: 60 kV, tube current: 350 μA) was performed. Image reconstruction by a three-dimensional ordered subset expectation maximization method (8 subsets, 5 iterations) was performed on projection data of SPECT.
Results of SPECT/CT are illustrated in FIG. 7. In FIG. 7, a portion indicated by an arrow is a position where the tumor is present, and a portion indicated by a circle is a position where the kidney is present. The higher the SUV, the amount of radioactivity accumulated is large.

Accumulation: Blood ([1]; 1 hour after injection): 3.33 ± 0.21 % ID/g
Accumulation: Brain ([1]; 1 hour after injection): 0.06 ± 0.01 % ID/g
Accumulation: Heart ([1]; 1 hour after injection): 0.87 ± 0.33 % ID/g
Accumulation: Intestinal ([1]; 1 hour after injection): 0.59 ± 0.14 % ID/g
Accumulation: Kidney ([1]; 1 hour after injection): 59.2 ± 35.2 % ID/g
Accumulation: LNCaP tumor ([1]; 1 hour after injection): 3.36 ± 0.04 % ID/g
Accumulation: Liver ([1]; 1 hour after injection): 0.91 ± 0.20 % ID/g
Accumulation: Lung ([1]; 1 hour after injection): 2.24 ± 0.60 % ID/g
Accumulation: Muscle ([1]; 1 hour after injection): 0.23 ± 0.68 % ID/g
Accumulation: Pancreas ([1]; 1 hour after injection): 0.74 ± 0.25 % ID/g
Accumulation: Spleen ([1]; 1 hour after injection): 3.05 ± 0.53 % ID/g
Accumulation: Stomach ([1]; 1 hour after injection): 0.10 ± 0.04 % ID
Accumulation: Blood ([1]; 4 hours after injection): 2.00 ± 0.29 % ID/g
Accumulation: Brain ([1]; 4 hours after injection): 0.05 ± 0.00 % ID/g
Accumulation: Heart ([1]; 4 hours after injection): 0.60 ± 0.08 % ID/g
Accumulation: Intestinal ([1]; 4 hours after injection): 1.05 ± 0.10 % ID/g
Accumulation: Kidney ([1]; 4 hours after injection): 22.7 ± 9.69 % ID/g
Accumulation: LNCaP tumor ([1]; 4 hours after injection): 2.50 ± 0.50 % ID/g
Accumulation: Liver ([1]; 4 hours after injection): 0.95 ± 0.05 % ID/g
Accumulation: Lung ([1]; 4 hours after injection): 1.56 ± 0.07 % ID/g
Accumulation: Muscle ([1]; 4 hours after injection): 0.21 ± 0.04 % ID/g
Accumulation: Pancreas ([1]; 4 hours after injection): 0.54 ± 0.22 % ID/g
Accumulation: Spleen ([1]; 4 hours after injection): 2.39 ± 0.05 % ID/g
Accumulation: Stomach ([1]; 4 hours after injection): 0.13 ± 0.03 % ID
Accumulation: Blood ([1]; 24 hours after injection): 0.68 ± 0.17 % ID/g
Accumulation: Brain ([1]; 24 hours after injection): 0.07 ± 0.02 % ID/g
Accumulation: Heart ([1]; 24 hours after injection): 0.43 ± 0.07 % ID/g
Accumulation: Intestinal ([1]; 24 hours after injection): 1.00 ± 0.44 % ID/g
Accumulation: Kidney ([1]; 24 hours after injection): 13.2 ± 2.41 % ID/g
Accumulation: LNCaP tumor ([1]; 24 hours after injection): 2.09 ± 0.39 % ID/g
Accumulation: Liver ([1]; 24 hours after injection): 1.55 ± 0.32 % ID/g
Accumulation: Lung ([1]; 24 hours after injection): 0.97 ± 0.15 % ID/g
Accumulation: Muscle ([1]; 24 hours after injection): 0.21 ± 0.07 % ID/g
Accumulation: Pancreas ([1]; 24 hours after injection): 0.71 ± 0.10 % ID/g
Accumulation: Spleen ([1]; 24 hours after injection): 3.37 ± 0.75 % ID/g
Accumulation: Stomach ([1]; 24 hours after injection): 0.16 ± 0.05 % ID
Accumulation: Blood ([1]; 48 hours after injection): 0.27 ± 0.16 % ID/g
Accumulation: Brain ([1]; 48 hours after injection): 0.03 ± 0.02 % ID/g
Accumulation: Heart ([1]; 48 hours after injection): 0.32 ± 0.05 % ID/g
Accumulation: Intestinal ([1]; 48 hours after injection): 0.79 ± 0.21 % ID/g
Accumulation: Kidney ([1]; 48 hours after injection): 8.58 ± 2.02 % ID/g
Accumulation: LNCaP tumor ([1]; 48 hours after injection): 1.69 ± 0.77 % ID/g
Accumulation: Liver ([1]; 48 hours after injection): 1.28 ± 0.16 % ID/g
Accumulation: Lung ([1]; 48 hours after injection): 0.66 ± 0.24 % ID/g
Accumulation: Muscle ([1]; 48 hours after injection): 0.15 ± 0.06 % ID/g
Accumulation: Pancreas ([1]; 48 hours after injection): 0.71 ± 0.17 % ID/g
Accumulation: Spleen ([1]; 48 hours after injection): 2.63 ± 0.83 % ID/g
Accumulation: Stomach ([1]; 48 hours after injection): 0.07 ± 0.02 % ID
Accumulation: Blood ([1]; 96 hours after injection): 0.14 ± 0.04 % ID/g
Accumulation: Brain ([1]; 96 hours after injection): 0.09 ± 0.05 % ID/g
Accumulation: Heart ([1]; 96 hours after injection): 0.40 ± 0.12 % ID/g
Accumulation: Intestinal ([1]; 96 hours after injection): 0.41 ± 0.17 % ID/g
Accumulation: Kidney ([1]; 96 hours after injection): 7.04 ± 3.28 % ID/g
Accumulation: LNCaP tumor ([1]; 96 hours after injection): 1.05 ± 0.03 % ID/g
Accumulation: Liver ([1]; 96 hours after injection): 1.59 ± 0.57 % ID/g
Accumulation: Lung ([1]; 96 hours after injection): 0.70 ± 0.15 % ID/g
Accumulation: Muscle ([1]; 96 hours after injection): 0.14 ± 0.08 % ID/g
Accumulation: Pancreas ([1]; 96 hours after injection): 0.85 ± 0.39 % ID/g
Accumulation: Spleen ([1]; 96 hours after injection): 2.82 ± 0.87 % ID/g
Accumulation: Stomach ([1]; 96 hours after injection): 0.10 ± 0.03 % ID
Accumulation: Blood ([1]; 192 hours after injection): 0.07 ± 0.03 % ID/g
Accumulation: Brain ([1]; 192 hours after injection): 0.04 ± 0.00 % ID/g
Accumulation: Heart ([1]; 192 hours after injection): 0.33 ± 0.01 % ID/g
Accumulation: Intestinal ([1]; 192 hours after injection): 0.13 ± 0.02 % ID/g
Accumulation: Kidney ([1]; 192 hours after injection): 3.47 ± 1.24 % ID/g
Accumulation: LNCaP tumor ([1]; 192 hours after injection): 0.83 ± 0.11 % ID/g
Accumulation: Liver ([1]; 192 hours after injection): 1.20 ± 0.09 % ID/g
Accumulation: Lung ([1]; 192 hours after injection): 0.67 ± 0.05 % ID/g
Accumulation: Muscle ([1]; 192 hours after injection): 0.14 ± 0.09 % ID/g
Accumulation: Pancreas ([1]; 192 hours after injection): 1.04 ± 0.18 % ID/g
Accumulation: Spleen ([1]; 192 hours after injection): 3.46 ± 0.32 % ID/g
Accumulation: Stomach ([1]; 192 hours after injection): 0.05 ± 0.00 % ID
Tumor/kidney ratio compared with [^111In]In-PSMA-DA1 (in words) ([1]; at any time point): lower tumor/kidney ratio
Compound: O=C([O-])CN1CCN(C(CCC(=O)NCCCC[C@H](NC(=O)N[C@@H](CCC(=O)O)C(=O)O)C(=O)O)C(=O)[O-])CCN(CC(=O)[O-])CCN(C(CCC(=O)Nc2ccccc2)C(=O)[O-])CC1.[111In+3] (stereo partly shown) [[^111In]In-PSMA-DB]
Tumor accumulation compared with [^111In]In-PSMA-DA1 (in words) ([1]; LNCaP tumor): tumor accumulation lower than that of [^111In]In-PSMA-DA1
SPECT/CT radioactivity accumulation in the LNCaP tumor (in words) ([2]; 24 and 48 hours after the injection): radioactivity accumulation was also observed in the LNCaP tumor
SPECT/CT kidney versus tumor radioactivity (in words) [2]: the accumulation was lower than that in the kidney

Reference: patent publication US20230112418A1, “COMPOUND AND RADIOACTIVE LABELING COMPOUND” (NIHON MEDI-PHYSICS CO., LTD., priority 2020, published 2023)
